According to patent US20110195910A1, “USE OF TOCOTRIENOL COMPOSITION FOR THE PREVENTION OF CANCER” (DAVOS LIFE SCIENCE PTE. LTD., priority 2008, published 2011):

Columns and labels:
PC-3 cells = assay: Flow cytometry and western blotting, PC-3 cells; type: cell-based, human
Description: 1.1.3 Flow cytometry—Cell cycle distribution was examined using flow cytometry. Briefly, cells were harvested by trypsinization, fixed in 70% ethanol at 4° C. overnight, and then resuspended in PBS. After incubation at 4° C. for overnight, 2×10^6 cells were incubated with in 20 μg/ml propidium iodide (PI) and 2 mg RNaseA for 15 minutes at 37° C. Cells were then examined by BD SLRII cytometer and the results were analyzed using ModFit software (Becton Dickinson, Mountain View, Calif.). Data were expressed as the percentage of cell cycle distribution in the entire population.
1.1.5 Western blotting—Detailed protocols have been described previously and are known in the art. Briefly, cell lysates were prepared by suspending cell pellets in lysis buffer [50 mmol/l Tris-HCl (pH 8.0), 150 mmol/l NaCl, 1% NP40, 0.5% deoxycholate, 0.1% SDS, 1 mg/ml aprotinin, 1 μg/ml leupeptin and 1 mmol/l phenylmethylsulfonyl fluoride]. For nuclear protein extraction, NucBuster™ protein extraction kit was used. Protein concentration was measured using the DC Protein Assay kit (Bio-Rad, Hercules, Calif.). Equal amount of protein (30 μg) was loaded onto a 10% SDS polyacrylamide gel for electrophoresis and then transferred onto a polyvinylidene difluoride membrane (Amersham, Piscataway, N.J.). The membrane was then incubated with primary antibodies for 1 hr at room temperature against E-cadherin (BD Biosciences, Bedford, Mass.), α-catenin, β-catenin, γ-catenin, Id-1, Id-3, EGFR, phosphor-c-jun, phosphor-ATF2, cleaved PARP, vimentin, α-smooth muscle actin, twist (Santa Cruz Biotechnology, Calif.), phosphor-IkB-alpha (Ser32/36), phosphor-IKK alpha (Seri 80)/IKK beta (Ser181), phosphor-SAPK/JNK (Thr183/Tyr185) G9, SAPK/JNK, NF-kB p65 (5A5) (Cell Signaling Technology Inc, Beverly, Mass.), Snail (Abcam). After incubation with appropriate secondary antibodies, signals were visualized by ECL western blotting system (Amersham, Piscataway, N.J.). Expression of β-actin and histone H1 were assessed as an internal loading control for total cell lysate and nuclear protein lysate respectively.
2.1.4 Flow cytometry was carried out as described above under item 1.1.3. Matrigel-invasion assay was carried out as described above under item 1.1.4. Western blotting was carried out as described above under item 1.1.5.

DU145 cells = assay: Spheroid formation assay, DU145 cells; type: cell-based
Description: 5.1.7 Spheroid formation assay—Spheroid formation assay was performed with a protocol modified from previous study (Folkins C, p3560). Briefly, cells were first trypsinized, washed with 1× PBS and resuspended in DMEM F12 medium. Two hundred cells were added into each well of a 24-well-plate pre-coated with polyHEMA (Sigma, St. Louis, Mo.). Cells will be grown in DMEM/F12 mem (Invitrogen, Carlsbad, Calif.) supplemented with 4 μg/mL insulin (Sigma, St. Louis, Mo.), B27 (Invitrogen, Carlsbad, Calif.), 20 ng/mL EGF (Sigma, St. Louis, Mo.), and 20 ng/mL basic FGF (Invitrogen, Carlsbad, Calif.). Fresh medium with the above supplements was added every day. γ-T3 was added at indicated time points and the number of spheroids was counted at day 14 of the assay or at the end of the treatment. Each experiment was repeated in triplicates and each data point represented the mean and standard derivation.

[1] = tested on: PCa tumors (PC-3-Luc xenograft); assay: Immunohistochemistry of xenograft tumor tissues; set-up: species or system BALB/c athymic nude mice; conditions: mouse, in vivo
Description: 4.1.9 Immunohistochemistry—Tumor, liver, kidney, spleen, lung and heart of mice were fixed in 10% neutral buffered formalin for 12 h. After fixation, the tissue samples were processed into paraffin blocks. Tissue sections were cut at a thickness of 5 using Kedee microtome (China JINHUA Kedi Co., Ltd, Zhejiang, China), then deparaffinized in toluene and rehydrated from graded of alcohols to distilled water. Endogenous peroxidase activity was blocked by treating the sections with 0.6% hydrogen peroxide in methanol for 20 min, followed by antigen retrieval treatment. (Dako, Glostrup, Denmark). The sections were then incubated with peroxidase blocking solution (Dako, Glostrup, Denmark) for 1 h at 37° C. to remove any nonspecific antigens. The specimens were incubated overnight at 4° C. with primary rabbit polyclonal antibody against Snail (1:200), Id1 (1:250) (Abcam, Cambridge, UK), cleaved caspase-3 and cleaved PARP (1:50; Cell Signalling Technology, Inc., Beverly, Mass., USA) and mouse monoclonal antibody against proliferating cell nuclear antigen (PCNA), Ki-67, E-cadherin (1:50; Santa Cruz Biotechnology, Santa Cruz, Calif., USA). After several rinse in TBS, the sections were incubated with Dako REALT EnVisionT/HRP, Rabbit/Mouse solution for 1 h at 37° C. The reaction was visualized by Dako REALT DAB^+ chromogen. Mayer's haematoxylin (Dako, Glostrup, Denmark) was used as counter stain. Standard inverted light microscopy (Nikon, Tokyo, Japan) was used to analyze the slides.

## CC(C)=CCC/C(C)=C/CC/C(C)=C/CCC1(C)CCc2cc(O)c(C)c(C)c2O1 (stereo not drawn) [γ-T3, 7,8-dimethyltocotrienol]
PC-3 cells; PC-3
  E-cadherin and γ-catenin protein expression: up-regulated
  JNK phosphorylation: dosage- and time-dependent increase in JNK phosphorylation activities
  NF-κB p65 activity (nuclear translocation): suppressed constitutive NF-κB p65 activity in a dose-dependent and time-dependent manner
PC-3 cells; PC-3, 24 hrs
  Snail and mesenchymal markers (vimentin, α-SMA and twist) expression: down-regulated
  activation of pro-apoptotic proteins (cleaved products): activation of procaspase 3, 7, 8, 9 as well as PARP
PC-3 cells; PC-3, increasing dosages
  EGF-R expression (Id-1 and Id-3 similar): significantly suppressed to almost undetectable level
PC-3 cells; γ-T3 IC50-95, 24 hrs
  sub-G1 cell population (flow cytometry): induction of sub-G1 cell population
DU145 cells
  spheroid formation ability: almost completely suppressed
[1]
  E-cadherin expression in tumor sections: up-regulated
  Snail expression in tumor sections: down-regulated
  level of PCNA, Ki67 and Id-1 in tumors: downregulated
  level of cleaved caspase 3 and PARP in tumors: induced
